# Test results from ChEMBL document CHEMBL1140679, “The identification of potent, selective, and bioavailable cathepsin S inhibitors” (Bioorg Med Chem Lett, 2007).
# How the values were obtained:
# [1] = molecular target: Cathepsin S (Homo sapiens, UniProt P25774); test: Inhibition of human cathepsin S
# [2] = molecular target: T1, Cathepsin K (Homo sapiens, UniProt P43235); test: Inhibition of human cathepsin K
# T1 sequence (P43235 whole entry): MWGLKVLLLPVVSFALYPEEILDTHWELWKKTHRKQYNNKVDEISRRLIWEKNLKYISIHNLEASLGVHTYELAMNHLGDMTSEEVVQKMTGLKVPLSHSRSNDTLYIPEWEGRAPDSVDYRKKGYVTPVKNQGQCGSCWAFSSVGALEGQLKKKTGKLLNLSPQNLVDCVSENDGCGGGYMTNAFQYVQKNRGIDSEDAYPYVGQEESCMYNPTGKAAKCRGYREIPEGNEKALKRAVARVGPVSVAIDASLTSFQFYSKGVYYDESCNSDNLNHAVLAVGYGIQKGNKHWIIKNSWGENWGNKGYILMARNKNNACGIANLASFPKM
# [3] = molecular target: Cathepsin B (Homo sapiens, UniProt P07858); test: Inhibition of human cathepsin B
# [4] = molecular target: Procathepsin L (Homo sapiens, UniProt P07711); test: Inhibition of human cathepsin L
# Chain of Procathepsin L (Homo sapiens, UniProt P07711) (P07711 whole entry): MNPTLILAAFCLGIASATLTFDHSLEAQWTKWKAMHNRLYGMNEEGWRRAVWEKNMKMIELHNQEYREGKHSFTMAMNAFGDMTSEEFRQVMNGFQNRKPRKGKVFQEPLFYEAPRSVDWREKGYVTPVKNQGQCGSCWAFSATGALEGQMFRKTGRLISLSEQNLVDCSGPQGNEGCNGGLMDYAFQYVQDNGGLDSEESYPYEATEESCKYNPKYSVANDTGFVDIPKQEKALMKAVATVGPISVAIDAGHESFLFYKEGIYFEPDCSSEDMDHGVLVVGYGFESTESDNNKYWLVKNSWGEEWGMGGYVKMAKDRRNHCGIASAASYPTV
# [5] = molecular target: Cathepsin S (Mus musculus, UniProt O70370); test: Inhibition of mouse recombinant cathepsin S
# Chain of Cathepsin S (Mus musculus, UniProt O70370) (O70370 whole entry): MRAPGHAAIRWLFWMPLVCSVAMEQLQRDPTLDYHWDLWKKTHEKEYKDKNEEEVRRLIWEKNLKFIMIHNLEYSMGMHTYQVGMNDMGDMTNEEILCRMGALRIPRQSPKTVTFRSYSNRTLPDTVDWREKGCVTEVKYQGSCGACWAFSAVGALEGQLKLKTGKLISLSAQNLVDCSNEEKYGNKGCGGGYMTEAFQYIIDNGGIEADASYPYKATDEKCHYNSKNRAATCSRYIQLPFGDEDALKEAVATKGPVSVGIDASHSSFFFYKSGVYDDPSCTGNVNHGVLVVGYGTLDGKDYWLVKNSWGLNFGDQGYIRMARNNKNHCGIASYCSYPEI
# [6] = molecular target: T2, Cathepsin K (Mus musculus, UniProt P55097); test: Inhibition of mouse recombinant cathepsin K
# T2 sequence (P55097 whole entry): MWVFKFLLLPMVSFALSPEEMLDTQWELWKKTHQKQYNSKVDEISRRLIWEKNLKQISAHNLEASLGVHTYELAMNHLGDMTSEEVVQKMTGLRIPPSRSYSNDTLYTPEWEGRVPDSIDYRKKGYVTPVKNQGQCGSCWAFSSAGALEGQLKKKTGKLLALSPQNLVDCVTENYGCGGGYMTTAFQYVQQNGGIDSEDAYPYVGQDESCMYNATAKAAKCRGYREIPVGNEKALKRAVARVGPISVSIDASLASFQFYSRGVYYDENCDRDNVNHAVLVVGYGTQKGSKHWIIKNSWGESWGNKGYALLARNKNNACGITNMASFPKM
# [7] = molecular target: Cathepsin B (Mus musculus, UniProt P10605); test: Inhibition of mouse recombinant cathepsin B
# Chain of Cathepsin B (Mus musculus, UniProt P10605) (P10605 whole entry): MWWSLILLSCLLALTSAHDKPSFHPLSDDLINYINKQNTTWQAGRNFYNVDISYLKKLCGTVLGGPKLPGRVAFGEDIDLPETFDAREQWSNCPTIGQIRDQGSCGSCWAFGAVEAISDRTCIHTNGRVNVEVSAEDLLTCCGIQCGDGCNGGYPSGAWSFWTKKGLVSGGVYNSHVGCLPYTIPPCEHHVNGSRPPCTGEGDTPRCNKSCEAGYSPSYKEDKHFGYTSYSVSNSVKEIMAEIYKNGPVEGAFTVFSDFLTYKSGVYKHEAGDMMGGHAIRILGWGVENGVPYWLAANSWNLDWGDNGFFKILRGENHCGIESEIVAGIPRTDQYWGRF
# [8] = molecular target: Cathepsin S (Rattus norvegicus, UniProt Q02765); test: Inhibition of rat spleen cathepsin S; format: tissue-based
# Chain of Cathepsin S (Rattus norvegicus, UniProt Q02765) (Q02765 whole entry): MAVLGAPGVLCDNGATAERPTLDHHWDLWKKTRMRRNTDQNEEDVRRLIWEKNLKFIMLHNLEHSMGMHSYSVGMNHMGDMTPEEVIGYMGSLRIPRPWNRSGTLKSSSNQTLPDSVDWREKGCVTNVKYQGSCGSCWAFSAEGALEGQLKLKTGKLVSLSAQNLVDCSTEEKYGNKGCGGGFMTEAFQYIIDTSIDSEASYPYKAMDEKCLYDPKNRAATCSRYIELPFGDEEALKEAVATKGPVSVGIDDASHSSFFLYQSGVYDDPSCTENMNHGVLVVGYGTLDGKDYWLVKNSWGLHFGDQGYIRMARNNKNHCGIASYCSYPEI
# [9] = molecular target: Cathepsin B (Rattus norvegicus, UniProt P00787); test: Inhibition of rat liver lysosomal cathepsin B
# Chain of Cathepsin B (Rattus norvegicus, UniProt P00787) (P00787 whole entry): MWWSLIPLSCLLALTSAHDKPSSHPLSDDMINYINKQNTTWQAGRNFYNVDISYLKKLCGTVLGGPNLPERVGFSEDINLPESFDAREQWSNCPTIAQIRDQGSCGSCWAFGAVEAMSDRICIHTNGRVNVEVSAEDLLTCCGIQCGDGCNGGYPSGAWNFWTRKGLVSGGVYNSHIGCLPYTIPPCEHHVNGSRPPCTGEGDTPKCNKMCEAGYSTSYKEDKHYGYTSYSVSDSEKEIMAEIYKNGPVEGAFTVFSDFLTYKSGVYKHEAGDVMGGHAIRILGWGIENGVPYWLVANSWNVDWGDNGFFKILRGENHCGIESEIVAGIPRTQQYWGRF
# [10] = molecular target: T3, Procathepsin L (Mus musculus, UniProt P06797); test: Inhibition of mouse recombinant cathepsin L
# T3 sequence (P06797 whole entry): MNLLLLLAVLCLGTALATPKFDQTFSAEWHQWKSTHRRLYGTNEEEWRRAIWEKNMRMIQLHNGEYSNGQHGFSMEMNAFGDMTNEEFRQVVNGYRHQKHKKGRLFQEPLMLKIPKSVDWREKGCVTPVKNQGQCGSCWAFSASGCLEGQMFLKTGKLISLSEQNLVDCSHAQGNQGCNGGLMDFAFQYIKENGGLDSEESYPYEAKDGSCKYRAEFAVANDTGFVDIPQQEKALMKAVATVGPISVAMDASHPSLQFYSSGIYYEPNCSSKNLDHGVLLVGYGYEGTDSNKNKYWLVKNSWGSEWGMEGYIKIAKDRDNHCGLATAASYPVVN
# [11] = molecular target: T4, Procathepsin L (Rattus norvegicus, UniProt P07154); test: Inhibition of rat liver lysosomal cathepsin L
# T4 sequence (P07154 whole entry): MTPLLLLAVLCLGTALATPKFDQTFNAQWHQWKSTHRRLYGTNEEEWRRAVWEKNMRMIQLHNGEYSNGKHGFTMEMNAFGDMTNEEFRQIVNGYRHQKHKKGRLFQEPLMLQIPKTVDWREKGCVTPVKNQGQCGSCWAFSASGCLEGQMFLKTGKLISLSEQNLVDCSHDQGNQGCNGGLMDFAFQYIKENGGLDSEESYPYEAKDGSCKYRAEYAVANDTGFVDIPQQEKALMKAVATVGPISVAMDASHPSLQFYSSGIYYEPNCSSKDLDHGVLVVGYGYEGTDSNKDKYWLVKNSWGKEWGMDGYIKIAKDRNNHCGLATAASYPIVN
# [12] = Bioavailability in Sprague-Dawley rat; format: ADME, organism-based; conditions: in vivo
# [13] = Cmax in Sprague-Dawley rat; format: ADME, organism-based; conditions: in vivo
# [14] = Half life in Sprague-Dawley rat; format: ADME, organism-based; conditions: in vivo
# [15] = tested on: Mus musculus; test: AUC (0 to 24 hrs) in C57BL/6 mouse at 5 mg/kg, po; format: ADME, organism-based, Plasma; design: time < 24 hr, dose 5 mg/kg, route oral; conditions: in vivo
# [16] = tested on: Mus musculus; test: AUC (0 to 24 hrs) in C57BL/6 mouse at 50 mg/kg, po; format: ADME, organism-based, Plasma; design: time < 24 hr, dose 50 mg/kg, route oral; conditions: in vivo
# [17] = Inhibition of antigen presentation in mouse B cells; format: functional, cell-based
# [18] = tested on: Hepatocyte; test: Metabolic stability in rat hepatocytes after 2 hrs; format: ADME, cell-based
# [19] = tested on: Mus musculus; test: AUC (0 to 24 hrs) in C57BL/6 mouse assessed as (R)-N-(1-cyanocyclopropyl)-3-(methylsulfonyl)-2-((S)-2,2,2-trifluoro-1-(4-fluorophenyl)ethylamino)propanamide levels at 10 mg/kg, po; format: ADME, organism-based, Plasma; design: time < 24 hr, dose 10 mg/kg, route oral; conditions: in vivo
# [20] = tested on: Mus musculus; test: AUC (0 to 24 hrs) in C57BL/6 mouse assessed as (R)-N-(1-cyanocyclopropyl)-3-(methylsulfonyl)-2-((S)-2,2,2-trifluoro-1-(4-fluorophenyl)ethylamino)propanamide levels at 50 mg/kg, po; format: ADME, organism-based, Plasma; design: time < 24 hr, dose 50 mg/kg, route oral; conditions: in vivo
# [21] = tested on: Mus musculus; test: AUC (0 to 24 hrs) in C57BL/6 mouse assessed as (R)-N-(1-cyanocyclopropyl)-3-(methylsulfonyl)-2-((S)-2,2,2-trifluoro-1-(4-fluorophenyl)ethylamino)propanamide levels at 150 mg/kg, po; format: ADME, organism-based, Plasma; design: time < 24 hr, dose 150 mg/kg, route oral; conditions: in vivo
# [22] = species on record: Mus musculus; test: AUC (0 to 24 hrs) in C57BL/6 mouse assessed as (R)-N-(1-cyanocyclopropyl)-3-(methylsulfonyl)-2-((S)-2,2,2-trifluoro-1-(4-fluorophenyl)ethylamino)propanamide levels at 0.01 w/w % after 5 days; format: ADME, organism-based, Plasma; design: time < 24 hr; conditions: in vivo
# [23] = species on record: Mus musculus; test: AUC (0 to 24 hrs) in C57BL/6 mouse assessed as (R)-N-(1-cyanocyclopropyl)-3-(methylsulfonyl)-2-((S)-2,2,2-trifluoro-1-(4-fluorophenyl)ethylamino)propanamide levels at 0.05 w/w % after 5 days; format: ADME, organism-based, Plasma; design: time < 24 hr; conditions: in vivo
# [24] = species on record: Mus musculus; test: AUC (0 to 24 hrs) in C57BL/6 mouse assessed as (R)-N-(1-cyanocyclopropyl)-3-(methylsulfonyl)-2-((S)-2,2,2-trifluoro-1-(4-fluorophenyl)ethylamino)propanamide levels at 0.25 w/w % after 5 days; format: ADME, organism-based, Plasma; design: time < 24 hr; conditions: in vivo
# [25] = species on record: Mus musculus; test: Drug level in C57BL/6 mouse blood at 0.01 w/w %; format: ADME, organism-based; conditions: in vivo, read-out: Drug uptake
# [26] = species on record: Mus musculus; test: Drug level in C57BL/6 mouse blood at 0.05 w/w %; format: ADME, organism-based; conditions: in vivo, read-out: Drug uptake
# [27] = species on record: Mus musculus; test: Drug level in C57BL/6 mouse blood at 0.25 w/w %; format: ADME, organism-based; conditions: in vivo, read-out: Drug uptake
# [28] = tested on: Mus musculus; test: Increase in p10 fragment accumulation in C57BL/6 mouse at 3 mg/kg/day for 5 days relative to control; format: functional
# Chain of Cathepsin S (Homo sapiens, UniProt P25774) (P25774 whole entry): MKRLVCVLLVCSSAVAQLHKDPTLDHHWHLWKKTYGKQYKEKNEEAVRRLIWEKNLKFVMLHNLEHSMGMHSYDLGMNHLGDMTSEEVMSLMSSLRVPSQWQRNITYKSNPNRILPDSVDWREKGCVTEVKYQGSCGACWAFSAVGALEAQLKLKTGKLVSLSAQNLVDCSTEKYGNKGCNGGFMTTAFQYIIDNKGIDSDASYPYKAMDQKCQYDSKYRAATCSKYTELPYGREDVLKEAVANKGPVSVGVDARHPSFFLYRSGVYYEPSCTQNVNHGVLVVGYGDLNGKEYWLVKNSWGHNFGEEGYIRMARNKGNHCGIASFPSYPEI
IC50 [1] [nM],IC50 [2] [nM],IC50 [3] [nM],IC50 [4] [nM],IC50 [5] [nM],IC50 [6] [nM],IC50 [7] [nM],IC50 [8] [nM],IC50 [9] [nM],IC50 [10] [nM],IC50 [11] [nM],SMILES,further results
1.8,405,1100,1010,0.6,1650,233,426,319,3040,3160,CS(=O)(=O)C[C@H](N[C@@H](c1ccc(F)cc1)C(F)(F)F)C(=O)NC1(C#N)CC1,bioavailability [12]: 48%; Cmax [13]: 6.3 µM; half-life [14]: 5.2 h; AUC [15]: 43 µM; AUC [16]: 111 µM; IC50 [17]: 44 nM; Stability [18]: Stable
729,1120,9720,> 10000,96,5840,6700,> 10000,> 10000,> 10000,> 10000,C[S+]([O-])C[C@H](N[C@@H](c1ccc(F)cc1)C(F)(F)F)C(=O)NC1(C#N)CC1 (some centres undefined),AUC [19]: 63 µM; AUC [20]: 274 µM; AUC [21]: 750 µM; AUC [22]: 7 µM; AUC [23]: 31 µM; AUC [24]: 87 µM; concentration [25]: 1 µM; concentration [26]: 6 µM; concentration [27]: 16 µM; Activity [28]: 24
